Where a SMILES comes first, the peptide text is derived from it. [ ]: non-standard residue; d: D form. ξ: configuration not given here. ξαMeBip(2'-Et,4'-OMe) = CCc1cc(OC)ccc1-c1ccc(CC(C)(N)C(=O)O)cc1; ξαMePhe(2,6-F2) = CC(N)(Cc1c(F)cccc1F)C(=O)O; ξαMe(hhPhe) = CC(N)(CCCc1ccccc1)C(=O)O; ξαMePhe(2-F) = CC(N)(Cc1ccccc1F)C(=O)O; ξhhPhe = NC(CCCc1ccccc1)C(=O)O; ξαMeD = CC(N)(CC(=O)O)C(=O)O; ξαMeP = CC1(C(=O)O)CCCN1; Aib = CC(C)(N)C(=O)O
Key:
[1] = Stability in human plasma; format: in vitro ADME; conditions: 2 μM, 37° C.; for half-life: human, plasma, read-out: half-life (t1/2) in human plasma
Description: (§1) Different peptidomimetics (final concentration 2 μM) were incubated with either DPP IV (1:25 mU) or pooled human plasma (7.5 μL) or simulated gastric fluid (pH 1.5; composition HCl, NaCl and Pepsin) or simulated intestinal fluid (pH 7.5) or human liver microsomes, for 0, 2, 4, 6, 12 and 24 h (37° C.; 50 mM triethanolamine-HCl buffer; pH 7.8). […] Reactions were terminated by the addition of TFA/H2O ([…], 10% (v/v)). The reaction products were then applied to a Vydac C18 analytical column (4.6×250-mm) and the major degradation fragment separated from intact peptidomimetic. The column was equilibrated with TFA/H20, at a flow rate of 1 mL/min. Using 0.1% (v/v) TFA in 70% acetonitrile/H2O, the concentration of acetonitrile in the eluting solvent was raised from 0% to 28% over 10 min and from 28% to 42% over 30 min. The absorbance was monitored at 206 nm using UV detector and peaks were collected manually prior to ESI-MS analysis. Area under the curve was measured for test peptidomimetics and their metabolites and percentage degradation were calculated at each time point over a period of 24 h.

DPP IV enzyme = DPP IV enzyme (Homo sapiens, UniProt P27487); experiment: Stability against DPP IV enzyme; format: in vitro ADME; conditions: 2 μM, 37° C.; for half-life: read-out: half-life (t1/2) with DPP-IV enzyme
DPP IV enzyme, sequence (P27487 whole entry, species assumed): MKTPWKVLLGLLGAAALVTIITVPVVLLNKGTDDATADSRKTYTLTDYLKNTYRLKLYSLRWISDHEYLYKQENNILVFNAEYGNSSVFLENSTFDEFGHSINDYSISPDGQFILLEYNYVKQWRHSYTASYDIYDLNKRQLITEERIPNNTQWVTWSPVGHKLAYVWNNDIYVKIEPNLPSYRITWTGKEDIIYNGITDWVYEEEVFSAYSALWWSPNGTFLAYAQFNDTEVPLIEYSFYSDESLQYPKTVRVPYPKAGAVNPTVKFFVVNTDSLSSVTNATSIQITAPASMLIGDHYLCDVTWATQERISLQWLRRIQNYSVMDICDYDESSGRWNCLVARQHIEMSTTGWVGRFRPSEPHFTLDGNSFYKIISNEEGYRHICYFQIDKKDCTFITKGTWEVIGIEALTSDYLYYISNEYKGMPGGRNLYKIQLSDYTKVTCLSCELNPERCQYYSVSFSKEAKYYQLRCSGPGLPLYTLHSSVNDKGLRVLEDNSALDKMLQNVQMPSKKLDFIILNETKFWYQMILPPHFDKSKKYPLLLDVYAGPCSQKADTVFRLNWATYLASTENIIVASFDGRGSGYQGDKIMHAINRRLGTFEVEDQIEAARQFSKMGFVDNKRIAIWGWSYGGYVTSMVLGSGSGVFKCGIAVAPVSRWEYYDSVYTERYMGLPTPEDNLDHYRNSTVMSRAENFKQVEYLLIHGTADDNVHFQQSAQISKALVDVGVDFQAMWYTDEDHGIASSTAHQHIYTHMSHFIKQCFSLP
Description: as §1

[2] = Stability in simulated intestinal fluid; format: in vitro ADME; conditions: 2 μM, 37° C.; for % degradation in 24 h when incubated with simulated intestinal fluid: pH 7.5, 24 h; for half-life: simulated gi fluid, read-out: half-life (t1/2) in simulated intestinal fluid; for half-life / half-life (t1/2) in simulated intestinal fluid: pH 7.5
Description: (§2) Reactions were terminated by the addition of TFA/H2O ([…], 10% (v/v)). […] The column was equilibrated with TFA/H20, at a flow rate of 1 mL/min. […] The absorbance was monitored at 206 nm using UV detector and peaks were collected manually prior to ESI-MS analysis.

[3] = Stability in liver microsomes; format: in vitro ADME, human; conditions: 2 μM, 37° C.; for half-life: human, microsomes, read-out: half-life (t1/2) in liver microsomes
Description: as §2

[4] = Stability in simulated gastric fluid; format: in vitro ADME; conditions: 2 μM, 37° C.; for % degradation in 24 h when incubated with simulated gastric fluid: pH 1.5, 24 h; for half-life: simulated gi fluid, read-out: half-life (t1/2) in simulated gastric fluid; for half-life / half-life (t1/2) in simulated gastric fluid: pH 1.5
Description: as §2

[5] = tested on: RIN5F (Rat Insulinoma) cells; experiment: In vitro glucose-dependent insulin secretion (RIN5F cell assay); format: cell-based; conditions: 16.7-mM glucose load, n = 3, mean ± S.D.
Outline: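 Rat RIN5F cells were preincubated 40 min in Krebs-Ringer buffer with 1.1 mM glucose and 0.5% BSA, pH 7.4, then exposed to test peptidomimetics for 30 min at 37 °C with 16.7 mM or 0 mM glucose. Supernatant insulin was measured by rat insulin ELISA and normalised to total protein (BCA), as pg/μg.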

| Structure (SMILES) | % degradation in 24 h when incubated with human plasma [1] [%] | half-life [1] [h] | % degradation in 24 h when incubated with DPP-IV enzyme (DPP IV enzyme) [%] | half-life (DPP IV enzyme) [h] | % degradation in 24 h when incubated with simulated intestinal fluid [2] [%] | half-life [2] [h] | % degradation in 24 h when incubated with liver microsomes [3] [%] | half-life [3] [h] | % degradation in 24 h when incubated with simulated gastric fluid [4] [%] | half-life [4] [h] | Insulin secretion ([5]; 0.1 nM test compd.) [pg/µg/h] | Insulin secretion ([5]; 1 nM test compd.) [pg/µg/h] | Insulin secretion ([5]; 10 nM test compd.) [pg/µg/h] | half-life (t1/2) in simulated intestinal fluid [2] | half-life (t1/2) in simulated gastric fluid [4] | half-life (t1/2) in liver microsomes [3] |
| --- | --- | --- | --- | --- | --- | --- | --- | --- | --- | --- | --- | --- | --- | --- | --- | --- |
| CCc1cc(OC)ccc1-c1ccc(CC(C)(NC(=O)[C@H](CC(=O)O)NC(=O)[C@H](CO)NC(=O)[C@@H](NC(=O)[C@H](Cc2ccccc2)NC(=O)[C@@H](NC(=O)CNC(=O)[C@H](CCC(N)=O)NC(=O)[C@H](CO)NC(=O)[C@H](Cc2c[nH]cn2)NC(=O)[C@@H](NC(=O)[C@@H](N)C(C)C)C(C)C)[C@@H](C)O)[C@@H](C)O)C(=O)NC(CCCc2ccccc2)C(N)=O)cc1 (stereo partly shown) [compound 205] (H-VVHSQGTFTSD[ξαMeBip(2'-Et,4'-OMe)][ξhhPhe]-NH2) | 00 | > 24 | 00 | > 24 | 00 | > 24 | 84 | 2 | 43 | 4 | 12.6 ± 0.25 | 15.3 ± 0.31 | 29.7 ± 0.48 |  |  |  |
| CCc1cc(OC)ccc1-c1ccc(CC(C)(NC(=O)C(C)(CC(=O)O)NC(=O)[C@H](CO)NC(=O)[C@@H](NC(=O)C(C)(Cc2c(F)cccc2F)NC(=O)[C@@H](NC(=O)CNC(=O)[C@H](CCC(=O)O)NC(=O)[C@H](CO)NC(=O)[C@H](Cc2c[nH]cn2)NC(=O)[C@@H](N)C(C)C)[C@@H](C)O)[C@@H](C)O)C(=O)NC(C)(CCCc2ccccc2)C(N)=O)cc1 (stereo partly shown) [compound 201] (H-VHSEGT[ξαMePhe(2,6-F2)]TS[ξαMeD][ξαMeBip(2'-Et,4'-OMe)][ξαMe(hhPhe)]-NH2) | 77 | 8 | 75 | 9 | 45 |  | 81 | 1 | 14 |  | 15.4 ± 0.14 | 21.2 ± 0.18 | 35.6 ± 0.17 | (6) h | (8) h |  |
| CCc1cc(OC)ccc1-c1ccc(CC(C)(NC(=O)C(C)(CC(=O)O)NC(=O)[C@H](CO)NC(=O)[C@@H](NC(=O)[C@H](Cc2ccccc2)NC(=O)[C@@H](NC(=O)CNC(=O)[C@H](CCC(=O)O)NC(=O)C2(C)CCCN2C(=O)[C@H](Cc2c[nH]cn2)NC(=O)[C@@H](N)C(C)C)[C@@H](C)O)[C@@H](C)O)C(=O)NC(C)(CCCc2ccccc2)C(N)=O)cc1 (stereo partly shown) [compound 188] (H-VH[ξαMeP]EGTFTS[ξαMeD][ξαMeBip(2'-Et,4'-OMe)][ξαMe(hhPhe)]-NH2) | 00 | > 24 | 00 | > 24 | 00 | > 24 | 80 | 2 | 41 | 4 | 12.9 ± 0.14 | 15.8 ± 0.13 | 29.9 ± 0.15 |  |  |  |
| CCc1cc(OC)ccc1-c1ccc(CC(C)(NC(=O)C(C)(CC(=O)O)NC(=O)[C@H](CO)NC(=O)[C@@H](NC(=O)[C@H](Cc2ccccc2)NC(=O)[C@@H](NC(=O)CNC(=O)[C@H](CCC(=O)O)NC(=O)[C@H](C)NC(=O)[C@H](Cc2c[nH]cn2)NC(=O)[C@@H](N)C(C)C)[C@@H](C)O)[C@@H](C)O)C(=O)NC(CCCc2ccccc2)C(N)=O)cc1 (stereo partly shown) [compound 62] (H-VHAEGTFTS[ξαMeD][ξαMeBip(2'-Et,4'-OMe)][ξhhPhe]-NH2) | 00 | > 24 | 00 | > 24 | 00 | > 24 | 35 |  | 00 | > 24 | 16.6 ± 0.41 | 22.9 ± 0.32 | 36.7 ± 0.11 |  |  | (5) h |
| CCc1cc(OC)ccc1-c1ccc(CC(C)(NC(=O)[C@H](CC(=O)O)NC(=O)[C@H](CO)NC(=O)[C@@H](NC(=O)C(C)(Cc2c(F)cccc2F)NC(=O)[C@@H](NC(=O)CNC(=O)[C@H](CCC(=O)O)NC(=O)C(C)(C)NC(=O)[C@H](Cc2c[nH]cn2)NC(=O)[C@@H](N)C(C)C)[C@@H](C)O)[C@@H](C)O)C(=O)NC(CCCc2ccccc2)C(N)=O)cc1 (stereo partly shown) [compound 31] (H-VH[Aib]EGT[ξαMePhe(2,6-F2)]TSD[ξαMeBip(2'-Et,4'-OMe)][ξhhPhe]-NH2) | 70 | 8 | 86 | 9 | 41 |  | 77 | 1 | 15 |  | 12.7 ± 0.21 | 15.8 ± 0.33 | 29.3 ± 0.19 | (6) h | (8) h |  |
| CCc1cc(OC)ccc1-c1ccc(CC(C)(NC(=O)C(C)(CC(=O)O)NC(=O)[C@H](CO)NC(=O)[C@@H](NC(=O)[C@H](Cc2ccccc2)NC(=O)[C@@H](NC(=O)CNC(=O)[C@H](CCC(N)=O)NC(=O)[C@H](C)NC(=O)[C@H](Cc2c[nH]cn2)NC(=O)[C@@H](N)C(C)C)[C@@H](C)O)[C@@H](C)O)C(=O)NC(CCCc2ccccc2)C(N)=O)cc1 (stereo partly shown) [compound 58] (H-VHAQGTFTS[ξαMeD][ξαMeBip(2'-Et,4'-OMe)][ξhhPhe]-NH2) | 69 | 8 | 71 | 8 | 43 |  | 77 | 2 | 11 | 7 | 16.1 ± 0.22 | 22.1 ± 0.26 | 36.0 ± 0.36 | (6) h |  |  |
| CCc1cc(OC)ccc1-c1ccc(CC(C)(NC(=O)C(C)(CC(=O)O)NC(=O)[C@H](CO)NC(=O)[C@@H](NC(=O)C(C)(Cc2ccccc2F)NC(=O)[C@@H](NC(=O)CNC(=O)[C@H](CCC(=O)O)NC(=O)[C@H](CO)NC(=O)[C@H](Cc2c[nH]cn2)NC(=O)[C@@H](N)C(C)C)[C@@H](C)O)[C@@H](C)O)C(=O)NC(CCCc2ccccc2)C(N)=O)cc1 (stereo partly shown) [compound 69] (H-VHSEGT[ξαMePhe(2-F)]TS[ξαMeD][ξαMeBip(2'-Et,4'-OMe)][ξhhPhe]-NH2) | 78 | 8 | 76 | 9 | 43 |  | 80 | 1 | 14 |  | 16.2 ± 0.13 | 22.4 ± 0.19 | 36.2 ± 0.09 | (6) h | (8) h |  |

Reference: patent publication US20120264685A1 (priority 2009, published 2012)
